The source of these data is patent US6448269B1 (Eli Lilly and Company, priority 1993, dated 2002).

Each structure is given as a SMILES string. Counter-ions that a name gives are not always drawn. A value given as a limit tells only on which side of the number the result lay.

Assay [1] concerns the target T1, GPIIb-IIIa (Homo sapiens, UniProt P05106+P08514).
T1 construct: Purified platelet GPIIb-IIIa receptor was prepared as described by Fitzgerald; from tissue; host or cells: platelets
T1 sequence (P08514 32-887 limits assumed): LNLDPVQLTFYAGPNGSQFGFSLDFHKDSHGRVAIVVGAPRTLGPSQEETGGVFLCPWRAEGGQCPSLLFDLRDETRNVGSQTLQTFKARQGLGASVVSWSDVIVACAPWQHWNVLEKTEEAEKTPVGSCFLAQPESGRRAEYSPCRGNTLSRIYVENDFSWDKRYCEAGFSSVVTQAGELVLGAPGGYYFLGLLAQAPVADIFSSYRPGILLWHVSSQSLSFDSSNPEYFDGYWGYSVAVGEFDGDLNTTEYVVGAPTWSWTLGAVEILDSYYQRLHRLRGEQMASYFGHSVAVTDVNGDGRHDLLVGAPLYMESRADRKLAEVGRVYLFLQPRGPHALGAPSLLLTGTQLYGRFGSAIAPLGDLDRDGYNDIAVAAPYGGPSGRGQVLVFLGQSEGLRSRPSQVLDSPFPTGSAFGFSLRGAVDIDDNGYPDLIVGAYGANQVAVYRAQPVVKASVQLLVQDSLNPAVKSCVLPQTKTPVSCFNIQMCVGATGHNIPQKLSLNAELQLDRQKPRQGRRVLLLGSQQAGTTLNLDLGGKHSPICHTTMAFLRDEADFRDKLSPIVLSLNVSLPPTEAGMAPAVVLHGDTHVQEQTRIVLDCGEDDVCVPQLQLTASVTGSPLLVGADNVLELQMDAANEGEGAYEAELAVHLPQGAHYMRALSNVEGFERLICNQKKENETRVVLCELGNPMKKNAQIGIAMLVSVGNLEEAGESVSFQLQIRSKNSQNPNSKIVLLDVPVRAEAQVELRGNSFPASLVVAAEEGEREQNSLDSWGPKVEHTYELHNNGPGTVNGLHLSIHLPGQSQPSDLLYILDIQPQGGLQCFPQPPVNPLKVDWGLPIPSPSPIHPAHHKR
T1 sequence (P05106 27-788): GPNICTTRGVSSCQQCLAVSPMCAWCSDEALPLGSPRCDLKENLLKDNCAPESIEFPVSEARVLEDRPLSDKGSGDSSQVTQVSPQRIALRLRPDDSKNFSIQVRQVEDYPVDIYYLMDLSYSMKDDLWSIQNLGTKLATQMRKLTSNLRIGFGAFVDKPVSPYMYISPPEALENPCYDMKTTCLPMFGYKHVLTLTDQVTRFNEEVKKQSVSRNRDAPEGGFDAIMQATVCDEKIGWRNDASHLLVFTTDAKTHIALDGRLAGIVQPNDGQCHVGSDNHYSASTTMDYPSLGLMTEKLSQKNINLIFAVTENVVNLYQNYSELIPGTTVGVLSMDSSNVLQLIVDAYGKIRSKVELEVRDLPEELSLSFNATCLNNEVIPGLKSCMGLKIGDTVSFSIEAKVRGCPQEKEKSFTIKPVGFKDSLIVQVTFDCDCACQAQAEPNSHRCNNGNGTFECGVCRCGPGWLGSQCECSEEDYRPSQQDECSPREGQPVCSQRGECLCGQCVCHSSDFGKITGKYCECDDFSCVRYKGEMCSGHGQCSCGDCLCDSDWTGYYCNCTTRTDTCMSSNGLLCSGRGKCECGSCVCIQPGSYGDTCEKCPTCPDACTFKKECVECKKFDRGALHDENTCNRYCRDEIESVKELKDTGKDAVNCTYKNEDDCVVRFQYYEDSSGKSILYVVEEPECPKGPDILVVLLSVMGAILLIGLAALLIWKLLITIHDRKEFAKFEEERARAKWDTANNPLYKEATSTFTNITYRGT
Description: ELISA IIb-IIIa assay (fibrinogen binding to immobilized GPIIb-IIIa). The following applies: purified platelet GPIIb-IIIa receptor coated on ELISA plates; biotin-labeled fibrinogen 10 nM, 3 hours at 25° C. As to the method:
In the following assay, GPIIb-IIIa is prepared in purified form, by a method such as described by Fitzgerald, L. A., et al., Anal Biochem (1985) 151:169-177, (the disclosure of which is incorporated herein by reference). GPIIb-IIIa is coated onto microtiter plates. The coated support is then contacted with fibrinogen and with the test material (e.g., compounds of Formula I) and incubated for a sufficient time to permit maximal binding of fibrinogen to the immobilized GPIIb-IIIa. Fibrinogen is typically provided at a concentration of about 5-50 nM and the test material can, if desired, be added at a series of dilution. Typical incubations are 2 to 4 hours at 25° C., the time and temperature being interdependent.
After incubation, the solution containing the fibrinogen and test material is removed and the level of binding of fibrinogen measured by quantitating bound fibrinogen to GPIIb-IIIa. Any suitable means of detection may be used, but it is convenient to employ labeled fibrinogen, for example using biotinylated labels. Such methods are well known in the art.
Purified platelet GPIIb-IIIa receptor was prepared as described by Fitzgerald, L. A., et al., Anal Biochem (1985) 151:169-177 (1985). Vitronectin receptor was prepared as described by Smith, J. W., J. Biol Chem (1988) 263:18726-18731. After purification, the receptors were stored in 0.1% Triton X-100 at 0.1-1.0 mg/ml.
The receptors were coated to the wells of 96-well flat-bottom ELISA plates (Linbro EIA-Plus microtiter plate, Flow Laboratories) after diluting 1:200 with a solution of 20 mM Tris-HCl, 150 mM NaCl, 1 mM CaCl2, pH 7.4, to reduce the Triton X-100 concentration to below its critical micellar concentration and adding an aliquot of 100 ul to each well. The wells were all allowed to incubate overnight at 4° C., and then aspirated to dryness. Additional sites were blocked by the addition of bovine serum albumin (BSA) at 35 mg/ml in the above buffer for 2 hours at 30° C. to prevent nonspecific binding. The wells were then washed once with binding buffer ([…] Tris-HCl, 100 mM NaCl 2 mM CaCl2, 1 mg/ml BSA).
The corresponding ligands (fibrinogen, von Willebrand Factor, or vitronectin) were conjugated to biotin using commercially available reagents and standard protocols. The labeled ligands were added to the receptor-coated wells at final concentration of 10 nM (100 ul/well) and incubated for 3 hours at 25° C. in the presence or absence of the test samples. After incubation, the wells are aspirated to dryness and bound ligand is quantitated.
The bound protein is detected by the addition of antibiotin antibody conjugated to alkaline phosphatase followed by addition of substrate (p-nitrophenyl phosphate), and determination of the optical density of each well at […]. Decreased color development is observed in wells incubated with test samples which inhibit binding of ligand to receptor.
For orientation: An ELISA detects its analyte on a solid surface through an enzyme-linked reagent.

The subject of assay [2] is human platelet-rich plasma. Description: Platelet aggregation assay (Aggregation-Human PRP/ADP). The class given is cell-based. To be noted: 1 min; human platelet-rich plasma incubated with compound 1 minute at 37° C.; ADP-induced aggregation; read-out: Agg: Human PRP/ADP IC50uM. As to the method: Platelet-rich plasma was prepared from healthy human volunteers for use in determining inhibition of platelet aggregation by the compounds.
Platelet-rich plasma was prepared at room temperature by centrifugation of the citrated whole blood at 100×g for 12 minutes. The platelet rich plasma contained approximately 200-400,000 platelets/μl.
Platelet-poor plasma was prepared by centrifugation of citrated whole blood at 12,000×g for 2 minutes.
Platelet aggregation was assayed in a 4-channel platelet aggregation profiler (PAP-4, Biodata, Hatboro, Pa.) according to the manufacturers directions. Inhibition of platelet aggregation was studied by adding varying amounts of […] to stirred human platelet-rich plasma. Specifically, the human platelet-rich plasma was incubated with the compound being tested for 1 minute at 37° C. prior to the addition of a variety of aggregating agents most often ADP 5 μM, but also 1 μg/ml collagen, 1 μM U46619 and 0.3 μM platelet activating factor.

In assay [1], `N=C(N)c1ccc(COc2ccc3c(c2)CCN(C(=O)C(=O)O)C3)cc1` [Example 44] had an IC50 of 160 nM.
Still for that read-out and setting: under `N=C(N)c1ccc(COc2ccc3c(c2)CCC(NCC(=O)O)C3)cc1` (stereo not shown) [Example 26] stands 520 nM; under `CCOC(=O)CC1CCc2cc(NC(=O)c3ccc(C(=N)NC(=O)OCC)cc3)ccc2O1` (racemic) [Example 68], greater than 1000 nM.
In the case of `N=C(N)c1ccc(C(=O)Nc2ccc3c(c2)CCC(CC(=O)O)C3=O)cc1` (stereo not shown) [Example 30], the IC50 in assay [2] was 0.06 µM.
Turning to `CCOC(=O)CCC1(C)C=Cc2cc(OCc3ccc(C(=N)N)cc3)ccc2O1` (racemic) [Example 52, Hydrochloride], in assay [2], the IC50 was 100 µM.
Same read-out and setting: under `CCCNC(=N)c1ccc(C(=O)Nc2ccc3c(c2)CCC(CC(=O)OCC)O3)cc1` (racemic) [Example 81, Hydrochloride] stands 0.39 µM; under `NC(=O)c1ccc(C(=O)Nc2ccc3c(c2)CCC(CC(=O)O)O3)cc1` (racemic) [Example 49, rac-(6-(N-(4-Carbamoylbenzoyl)amino)-3,4-dihydro-2H-1-benzopyran-2-yl)acetic Acid], 100 µM.
Regarding `O=C(O)CNC1CCc2cc(OCCCC3CCNCC3)ccc2C1` (stereo not shown) [Example 25], in assay [1], the IC50 is 220 nM.
For `CCOC(=O)CC1CCc2cc(NC(=O)c3ccc(C(=N)N)cc3Cl)ccc2O1` (racemic) [Example 75, acetate Hydrochloride], the IC50 in assay [2] was 1.8 µM.
Take `CCCOC(=O)CC1CCc2cc(NC(=O)c3ccc(C(=N)N)cc3)ccc2O1` (racemic) [Example 86, hydrochloride]: the IC50 in assay [2] stood at 0.078 µM.
Regarding `CC(=O)N(CC(=O)O)C1CCc2cc(OCc3ccc(C(=N)N)cc3)ccc2C1` (stereo not shown) [Example 27], in assay [1], the IC50 amounted to 110 nM.
For the compound `CCCCNC(=N)c1ccc(C(=O)Nc2ccc3c(c2)CCC(CC(=O)OCC)O3)cc1` (racemic) [Example 83, Hydrochloride], the IC50 in assay [2] was 0.14 µM.
Turning to `COC(=O)CC1CCc2cc(NC(=O)c3ccc(C(=N)N)cc3)ccc2O1` (racemic) [Example 87, Hydrochloride], the IC50 in assay [2] worked out at 0.084 µM.
Same read-out and setting: under `CCCOC(=O)NC(=N)c1ccc(C(=O)Nc2ccc3c(c2)CCC(CC(=O)OCC)O3)cc1` (racemic) [Example 85] stands greater than 100 µM; under `CCOC(=O)CC1CCc2cc(NC(=O)c3ccc(C(=N)NCc4ccccc4)cc3)ccc2O1` (racemic) [Example 92, Ethyl rac-(3,4-Dihydro-6-(N-(4-(N′-(phenylmethylamino)iminomethyl)benzoyl)amino)-2H-1-benzopyran-2-yl)acetate Hydrochloride], 0.24 µM; under `O=C(O)CC1CCc2cc(OCCCCC3CCNCC3)ccc2O1` (racemic) [Example 54, rac-(3,4-Dihydro-6-(4-(piperidin-4-yl)butoxy)-2H-1-benzopyran-2-yl)acetic Acid Trifluoroacetate], 12 µM.
With `CCOC(=O)CC1CCc2cc(NC(=O)/C=C/C3CCNCC3)ccc2O1` (racemic) [Example 77, Ethyl rac-(3,4-Dihydro-6-(N-(3-(piperidine-4-yl)propenoyl)amino)-2H-1-benzopyran-2-yl)acetate Trifluoroacetate], the IC50 in assay [2] turned out to be 1.3 µM.
As for `N=C(N)NCc1ccc(COc2ccc3c(c2)CCN(CC(=O)O)C3=O)cc1` [Example 21, 6-[[4-(Guanidinomethyl)phenyl]methoxy]-3,4-dihydro-1-oxo-2(1H)-isoquinoline Acetic Acid Trifluoroacetate], in assay [2], the IC50 was greater than 100 µM.
`N=C(N)c1ccc(COc2ccc3cc(CC(=O)O)ccc3c2)cc1` [Example 33] came in with an IC50 in assay [1] of 5 nM.
Take `CCOC(=O)CCC1(C)CC(=O)c2cc(OCc3ccc(C(=N)N)cc3)ccc2O1` (racemic) [Example 66, Hydrochloride]: in assay [2], the IC50 is greater than 100 µM.
On the same count and under the same terms, under `CCOC(=O)CC1CC(C)(C)c2cc(NC(=O)c3ccc(C(=N)N)cc3)ccc2O1` (racemic) [Example 79, Hydrochloride] stands greater than 100 µM; under `CC1(CCC(=O)O)CC(=O)c2cc(OCc3ccc(C(=N)N)cc3)ccc2O1` (racemic) [Example 67, Hydrochloride], 29 µM; under `CCOC(=O)CC1CCc2cc(OCc3ccc(C(=N)N)cc3)ccc2O1` (racemic) [Example 45, Hydrochloride], 11 µM.
For the compound `CCOC(=O)CC1CCc2cc(NC(=O)c3ccc(C(=N)N)cc3Cl)ccc2C1=O` (racemic) [Example 62, Hydrochloride], the IC50 in assay [2] came out at 6.8 µM.
Take `CC1(C)CC(CC(=O)O)Oc2ccc(NC(=O)c3ccc(C(=N)N)cc3)cc21` (racemic) [Example 80, rac-(6-(N-(4-(Aminoiminomethyl)benzoyl)amino)-3,4-dihydro-4,4-dimethyl-2H-1-benzopyran-2-yl)acetic Acid]: the IC50 in assay [2] was greater than 100 µM.
